Molecular target: Trace amine-associated receptor 1 (Homo sapiens) (UniProt Q96RJ0)
Test: TAAR1 activation concentration-response – cell-based, fluorescence, late stage, dose response (AID 743229)
Settings: TAAR1-expressing cells, fluorescence agonist read-out

Trace amine-associated receptor 1 (Homo sapiens), sequence (Q96RJ0 whole entry, looked up): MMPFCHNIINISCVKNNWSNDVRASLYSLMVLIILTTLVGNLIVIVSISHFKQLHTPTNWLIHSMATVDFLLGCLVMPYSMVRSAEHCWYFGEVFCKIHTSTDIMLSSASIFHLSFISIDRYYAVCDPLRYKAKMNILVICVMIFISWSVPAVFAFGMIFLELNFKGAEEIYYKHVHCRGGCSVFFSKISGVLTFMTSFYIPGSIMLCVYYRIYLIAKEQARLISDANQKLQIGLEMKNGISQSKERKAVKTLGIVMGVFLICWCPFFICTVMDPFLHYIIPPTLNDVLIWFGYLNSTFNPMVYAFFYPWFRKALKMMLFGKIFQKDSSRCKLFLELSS

| Compound | EC50 [nM] |
| --- | --- |
| CC1(C)CCCN(C(=O)c2coc(=O)c(Br)c2)C1 | 481 |
| CCOC(=O)C(NC(C)=O)(N1CCc2ccccc2C1)C(F)(F)F (centres undefined) | 75 |
| O=C(Nc1ccncc1)Nc1ccc(F)cc1 | 866 |
| Cc1ccc(NC(=O)CCN2CCc3ccccc3C2)cc1 | 1270 |
| Nc1nc(Nc2cccc(F)c2)nc2ccccc12 | 346 |
| Cc1cc(C)n(C(CC(=O)N2CCc3ccccc3C2)C(=O)O)n1 (centres undefined) | 170 |
| Cc1cc(N(C)C)nc(Nc2ccccc2)n1 | 182 |
| O=C(CCCCl)N1CCc2[nH]c3ccccc3c2C1 | 101 |
| O=C(C(=O)N1CCc2ccccc2C1)c1cn(CC(=O)N2CCCCC2)c2ccccc12 | 781 |
| O=C(Nc1cccnc1)Nc1cccc(F)c1 | 3310 |
| COc1cc(C(=O)CCN2CCC(c3ccccc3)C2)cc(OC)c1OC (centres undefined) | 85.9 |
| Nc1nc(Nc2ccccc2)nc2ccccc12 | 210 |
| c1ccc2c3c([nH]c2c1)CCNC3 | 294 |
| O=C(CCN1CCc2ccccc2CC1)c1ccc2c(c1)OCCO2 | 340 |
| CC(=NCCc1ccccc1)C1CCOC1=O (centres undefined) | 36.5 |
| c1ccc2c(c1)CCN(c1nc3cc4c(cc3s1)OCO4)C2 | 278 |
| O=C(CCN1CCC(c2ccccc2)C1)c1cccs1 (centres undefined) | 108 |
| CCOC(=O)C(NC(=O)CC)(N1CCc2ccccc2C1)C(F)(F)F (centres undefined) | 42.4 |
| O=C(Nc1ccccc1)Nc1ccncc1 | 807 |
| NC(N)=NN=Cc1c(Cl)cccc1Cl | 219 |
| O=C(CCN1CCC(c2ccccc2)C1)c1ccc2c(c1)OCCO2 (centres undefined) | 263 |
| c1ccc(CCn2nnnc2C(c2cccs2)N2CCN(Cc3ccc4c(c3)OCO4)CC2)cc1 (centres undefined) | 233 |
| OCCNc1nc(Nc2cccc(O)c2)nc2ccccc12 | 257 |
| OCCNc1nc(Nc2ccc(O)cc2)nc2ccccc12 | 804 |

Source: PubChem BioAssay AID743229 (The Scripps Research Institute Molecular Screening Center, 2013)
